Reference: patent US6599705B2, “Regulation of fungal gene expression” (priority 1997, dated 2003)

Legend:
[1] = system: S. cerevisiae; experiment: dig assay (nonfilamentous agar invasion) on YPD gradient plates; type: cell-based; conditions: YPD agar with fluconazole gradient, two days, washed with water (FIG. 12)
From the text: Another example of a screen is based on the observation that yeast from haploid S. cerevisiae invade agar when grown on rich (YPD) medium without forming pseudohyphae. This nonfilamentous invasion behavior has been termed “digging,” and the assay used to detect this behavior has been termed the “dig assay.” Roberts and Fink, supra. […] Mutant strains defective for digging are referred to as “dig minus,” or “dig−.” The correlation of pseudohyphal invasion and behavior in the dig assay is an essential aspect of this screen. The dig assay is comparatively easy to perform relative to pseudohyphal invasion assays, and, as it occurs in haploid cells, is more amenable to genetic approaches that rely upon recessive mutations.
An example of the dig assay is given below. To test whether a chemical compound would affect the nonfilamentous agar invasion behavior of nonmutant S. cerevisiae or C. albicans at concentrations much lower than the lowest growth inhibitory concentration, these fungi were spotted onto agar plates containing rich medium (YPD) and a gradient of the antifungal fluconazole. The plates were then incubated for two days at optimum growth temperatures and washed with water. […] This assay can be performed on other dimorphic fungi, such as U. maydis, as well as on other fungi. […]

[2] = system: C. albicans; experiment: as above; type: cell-based; conditions: YPD agar with fluconazole gradient, two days, washed with water (FIG. 12)
From the text: We have discovered that pathogenic fungi can display similar digging behavior, characterized by increased invasion into or adherence to a defined substrate. […] This behavior is similar to the reported digging behavior of S. cerevisiae. As is true for S. cerevisiae, non-hyphal agar invasion by any given C. albicans mutant strain correlates with the ability of that strain to form filaments under filament-inducing conditions (e.g., agar+serum). Thus, screening for compounds that block the digging phenotype in fungi will allow for identification of compounds that block filament formation and, as a result, pathogenesis. These compounds are considered useful as fungicides or fungistats. Similarly, screening for compounds that increase substrate invasion will allow for identification of compounds which may also increase production or yield of secondary metabolites.
An example of the dig assay is given below. To test whether a chemical compound would affect the nonfilamentous agar invasion behavior of nonmutant S. cerevisiae or C. albicans at concentrations much lower than the lowest growth inhibitory concentration, these fungi were spotted onto agar plates containing rich medium (YPD) and a gradient of the antifungal fluconazole. The plates were then incubated for two days at optimum growth temperatures and washed with water. […]

SMILES: OC(Cn1cncn1)(Cn1cncn1)c1ccc(F)cc1F [fluconazole]
- inhibition of agar invasion relative to growth inhibition [1]: inhibition of agar invasion at significantly lower concentrations of fluconazole than those necessary to inhibit growth
- inhibition of agar invasion relative to growth inhibition [2]: inhibition of agar invasion at significantly lower concentrations of fluconazole than those necessary to inhibit growth
